Measured values: EP3636781A1, “NOVEL SCREENING ASSAYS FOR IDENTIFYING COMPOUNDS RESERSING HIV-1 LATENCY” (Heinrich-Pette-Institut Leibniz-Institut für Experimentelle …, priority 2018, dated 2020)

Key:
J89Δvpu cells [1] = conditions: 96 hrs, proportion of Zombie NIR-/activated Caspase 3- cells against concentration
Protocol: (§1) Latency reactivation was traced by quantifying the proportion of HIV-1-GFP+ cells. […] The treatment of J89Δvpu cells with increasing concentrations of sulfasalazine was measured at 96 hrs. Cells shown are gated on viable cells (Zombie NIR- gate) and on negative activated caspase 3 to exclude any apoptotic or dead cell. […] (B) NF-κB inhibitor, sulfasalazine, was added at several concentrations to the J89Cas9AVpu cell line and the proportion of GFP- cells (latent) was measured by flow cytometry at 96 hrs. (gating strategy: (A): FSC/SSC → Zombie NIR- → HIV-1-GFP. (B) FSC/SSC → Zombie NIR negative → Caspase 3 active negative → HIV-1-GFP).

J89Δvpu cells [2] = assay: cells; conditions: 96 h, read-out: EC50 for HIV-1 latency re-establishment
Protocol: as §1

NF-κB (human) = NF-κB (human) (UniProt Q04206); assay: cell-based or functional assay
Chain of NF-κB (human) (Q04206 whole entry): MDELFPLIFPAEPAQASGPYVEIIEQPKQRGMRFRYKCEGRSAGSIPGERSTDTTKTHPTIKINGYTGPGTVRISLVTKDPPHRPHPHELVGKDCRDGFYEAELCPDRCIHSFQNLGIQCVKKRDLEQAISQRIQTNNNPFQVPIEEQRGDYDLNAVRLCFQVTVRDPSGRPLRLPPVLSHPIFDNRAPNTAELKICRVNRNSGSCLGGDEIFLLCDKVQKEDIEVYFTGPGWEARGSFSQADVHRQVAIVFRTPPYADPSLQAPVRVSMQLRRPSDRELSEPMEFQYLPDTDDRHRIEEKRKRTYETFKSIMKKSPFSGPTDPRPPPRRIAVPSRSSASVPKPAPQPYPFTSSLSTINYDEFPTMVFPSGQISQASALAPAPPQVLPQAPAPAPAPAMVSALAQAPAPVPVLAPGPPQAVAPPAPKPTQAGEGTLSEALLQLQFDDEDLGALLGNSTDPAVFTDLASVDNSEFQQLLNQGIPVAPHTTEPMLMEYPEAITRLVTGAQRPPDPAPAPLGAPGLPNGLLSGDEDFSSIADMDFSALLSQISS

J89 = assay: SM111 treatment of latent J89 cells, latency reversal as HIV-1-GFP+ cells; assay type: cell-based; conditions: 100 µM, several consecutive passages, HIV-1-GFP+ cells by flow cytometry (Figure 7A)
Protocol: All results were depicted as medians ± IQR. […].
For SM111 treatment, the HIV-1 latent Jurkat cell line, J89, was treated with SM111 compound, a Vpu-inhibitor, SM113, a negative compound, and DMSO for several consecutive passages. 1x10^6 cells were plated and treated with 100 µM of all compounds for 4 days. Then, one fourth (25%) of the cells were passaged into new media containing the respective treatment and the rest were used to measure HIV-1 latency reactivation (GFP) and cell viability. An untreated control well was kept as internal negative control.

With O=C(O)c1cc(/N=N/c2ccc(S(=O)(=O)Nc3ccccn3)cc2)ccc1O [sulfasalazine] the LD50 (J89Δvpu cells [1]) was over 0.50 mM and the EC50 (J89Δvpu cells [2]) was 400 µM.
“HIV-1 Vpu protein (strain 89.6), wild type” showed an activation of NF-κB in a dual luciferase reporter assay (HEK293T, constitutively active IKKβ, increasing amounts of Vpu expression plasmid), EC50 (NF-κB (human)) of 5.2 ng.
With HIV-1 89.6 Vpu R45K mutant the activation of NF-κB in a dual luciferase reporter assay (HEK293T, constitutively active IKKβ, increasing amounts of Vpu expression plasmid), EC50 (NF-κB (human)) was over 38 ng.
With N=C(N)NC(=O)c1cccnc1N1CCCCCC1 [SM111, 1-(2-(azepan-1-yl)nicotinoyl)guanidine] the “reversal of HIV-1 latency” value (J89) was “able to reverse HIV-1 latency”.
